The source of these data is US20240158446A1, “CYCLIC COMPOUND HAVING SELECTIVE INHIBITORY ACTION ON KRAS OVER HRAS AND NRAS” (CHUGAI SEIYAKU KABUSHIKI KAISHA, priority 2021, published 2024).

Where a SMILES comes first, the peptide text is derived from it. Bridges are numbered along the chain shown (N, C = ends). [ ]: non-standard residue; d: D form. The star is where a group is joined. hPhe(3-Cl-4-CF3) = N[C@@H](CCc1ccc(C(F)(F)F)c(Cl)c1)C(=O)O; NPrPhe(4-CF3) = CCCN[C@@H](Cc1ccc(C(F)(F)F)cc1)C(=O)O; NMeGly(cPent) = CN[C@H](C(=O)O)C1CCCC1; Ac4c(3,3-Me2) = CC1(C)CC(N)(C(=O)O)C1; NMeD = CN[C@@H](CC(=O)O)C(=O)O; NMeL = CN[C@@H](CC(C)C)C(=O)O; Morpholide = C1CN(*)CCO1; Sar = CNCC(=O)O

In assay [1] the target is GDP-bound KRAS wild-type protein (Homo sapiens, UniProt P01116). The experiment in a line: Binding to KRAS by surface plasmon resonance (SPR), Single Cycle Kinetics. The following applies: SPR, Single Cycle Kinetics, GDP-bound KRAS wild-type protein; read-out: KRAS KD. (SPR reads the build-up and loss of mass on a sensor chip optically.)
GDP-bound KRAS wild-type protein, sequence (P01116 whole entry): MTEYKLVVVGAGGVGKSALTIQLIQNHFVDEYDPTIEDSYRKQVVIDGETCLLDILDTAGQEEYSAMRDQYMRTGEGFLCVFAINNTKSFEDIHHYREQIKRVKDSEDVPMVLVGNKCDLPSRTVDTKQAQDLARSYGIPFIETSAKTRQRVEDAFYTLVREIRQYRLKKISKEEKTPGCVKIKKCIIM
For assay [2], the target named is GDP-bound NRAS wild-type protein (Homo sapiens, UniProt P01111). The experiment in a line: Binding to NRAS by surface plasmon resonance (SPR), Single Cycle Kinetics. The following applies: ratio of KD for GDP-bound NRAS wild-type protein to KD for KRAS, SPR.
GDP-bound NRAS wild-type protein, sequence (P01111 whole entry): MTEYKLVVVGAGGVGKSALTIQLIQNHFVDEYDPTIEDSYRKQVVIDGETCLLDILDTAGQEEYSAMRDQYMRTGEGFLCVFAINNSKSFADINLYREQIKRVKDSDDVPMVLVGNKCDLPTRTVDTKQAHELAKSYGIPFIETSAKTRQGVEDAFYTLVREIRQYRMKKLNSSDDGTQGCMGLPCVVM
For assay [3], the target named is GDP-bound HRAS wild-type protein (Homo sapiens, UniProt P01112). Put plainly: Binding to HRAS by surface plasmon resonance (SPR), Single Cycle Kinetics. The following applies: ratio of KD for GDP-bound HRAS wild-type protein to KD for KRAS, SPR.
GDP-bound HRAS wild-type protein, sequence (P01112 whole entry): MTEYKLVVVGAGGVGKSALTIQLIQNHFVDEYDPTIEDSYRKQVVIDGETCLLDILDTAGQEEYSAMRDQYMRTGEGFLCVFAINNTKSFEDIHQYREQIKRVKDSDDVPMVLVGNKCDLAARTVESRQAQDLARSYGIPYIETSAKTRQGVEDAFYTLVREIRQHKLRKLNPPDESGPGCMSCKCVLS
Assay [4] concerns human lung cancer strain NCI-H441. Put plainly: cells. The following applies: NCI-H441, 96 h, read-out: NCI-H441 IC50 (nM), NCI-H441 cell proliferation, 4 days, CellTiter-Glo. For orientation: Cellular ATP, detected with luciferase, serves as a proxy for viable cell number.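 Note: cell proliferation inhibition after four days measured by CellTiter-Glo.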

For `CCO[C@@H]1C[C@H]2C(=O)NC3(CC(F)(F)C3)C(=O)N(C)[C@@H](C3CCCC3)C(=O)N(C)[C@H](C(=O)N(C)C)CC(=O)N(C)[C@@H](CC(C)C)C(=O)N[C@@H]([C@@H](C)CC)C(=O)N(C)CC(=O)N(C)[C@H]3C/C=C\CCN(C3=O)[C@@H](Cc3ccc(C(F)(F)F)cc3)C(=O)N(C)CC(=O)N[C@@H](CCc3cc(F)c(C(F)(F)F)c(F)c3)C(=O)N2C1` [PP1741], the Kd – broadly, the constant that tells how readily two partners part at equilibrium – in assay [1] was 0.039 nM. Besides, in assay [2], the “NRAS/KRAS (KD ratio)” value was “A (a compound having 10 or more and less than 20 is denoted as A)”. In assay [3], the “HRAS/KRAS (KD ratio)” value was “B (a compound having 3 or more and less than 10 is denoted as B)”. Further, the IC50 in assay [4] was determined as 2.3 nM.

With `CCCN(C)C(=O)[C@@H]1CC(=O)N(C)[C@@H](COCC)C(=O)N[C@@H]([C@@H](C)CC)C(=O)N(C)CC(=O)N(C)[C@H]2C/C=C\CCN(C2=O)[C@@H](Cc2ccc(C(F)(F)F)cc2)C(=O)N(C)CC(=O)N[C@@H](CCc2cc(F)c(C(F)(F)F)c(F)c2)C(=O)N2C[C@H](OCC)C[C@H]2C(=O)NC2(CCC2)C(=O)N(C)[C@@H](C2CCCC2)C(=O)N1C` [PP1988], in assay [1], the Kd was 0.06 nM. Besides, in assay [2], the “NRAS/KRAS (KD ratio)” value is “A (a compound having 10 or more and less than 20 is denoted as A)”. In addition, the “HRAS/KRAS (KD ratio)” value in assay [3] is “A (a compound having 10 or more and less than 20 is denoted as A)”. Moreover, the IC50 in assay [4] worked out at 11 nM.

For the compound `CCO[C@@H]1C[C@H]2C(=O)NC3(CC(C)(C)C3)C(=O)N(CC)[C@@H](C3CCCC3)C(=O)N(C)[C@H](C(=O)N(C)C)CC(=O)N(C)[C@@H](CC)C(=O)N[C@@H]([C@@H](C)CC)C(=O)N(C)CC(=O)N(C)[C@H]3C/C=C\CCN(C3=O)[C@@H](Cc3ccc(C(F)(F)F)cc3)C(=O)N(C)CC(=O)N[C@@H](CCc3cc(F)c(C(F)(F)F)c(F)c3)C(=O)N2C1` [PP1913], the Kd in assay [1] was 0.37 nM. The “NRAS/KRAS (KD ratio)” value in assay [2] was “A (a compound having 10 or more and less than 20 is denoted as A)”. Besides, in assay [3], the “HRAS/KRAS (KD ratio)” value was “A (a compound having 10 or more and less than 20 is denoted as A)”. Moreover, the IC50 in assay [4] stood at 44 nM.

In the case of `CCCN1C(=O)CN(C)C(=O)CN(C)C(=O)[C@H]([C@@H](C)OC)NC(=O)[C@H](CC(C)C)N(C)C(=O)C[C@@H](C(=O)N2CCOCC2)N(C)C(=O)[C@H](C2CCCC2)N(C)C(=O)C2(CC(C)(C)C2)NC(=O)[C@@H]2CCCN2C(=O)[C@H](CCc2ccc(C(F)(F)F)c(Cl)c2)NC(=O)CN(C)C(=O)[C@@H]1Cc1ccc(C(F)(F)F)cc1` [PP1963] ([NMeL]T(Me)[Sar][Sar][NPrPhe(4-CF3)][Sar][hPhe(3-Cl-4-CF3)]P[Ac4c(3,3-Me2)][NMeGly(cPent)][NMeD]-Morpholide; lactam N-11), the Kd in assay [1] was determined as 0.18 nM. In addition, the “NRAS/KRAS (KD ratio)” value in assay [2] is “B (a compound having 3 or more and less than 10 is denoted as B)”. Moreover, the “HRAS/KRAS (KD ratio)” value in assay [3] is “C (A compound having a KD ratio of 0.1 or more and less than 3 is denoted as C)”. The IC50 in assay [4] worked out at 9.1 nM.

For `CC[C@H](C)[C@@H]1NC(=O)[C@H](CC(C)C)N(C)C(=O)C[C@@H](C(=O)N(C)C)N(C)C(=O)[C@H](C2CCCC2)N(C)C(=O)C2(CCC2)NC(=O)[C@@H]2C[C@@H](C)CN2C(=O)[C@H](CCc2cc(F)c(C(F)(F)F)c(F)c2)NC(=O)CN(C)C(=O)[C@H](Cc2ccc(C)cc2)N2CC/C=C\C[C@@H](C2=O)N(C)C(=O)CN(C)C1=O` [PP1866], the Kd in assay [1] is 0.093 nM. For the same compound, the “NRAS/KRAS (KD ratio)” value in assay [2] is “A (a compound having 10 or more and less than 20 is denoted as A)”. In addition, the “HRAS/KRAS (KD ratio)” value in assay [3] was “B (a compound having 3 or more and less than 10 is denoted as B)”. Moreover, the IC50 in assay [4] was found to be 11.1 nM.
